Measured values reported in US7973029B2 (Gilead Sciences, Inc., priority 2007, dated 2011).
Converted amounts (≈) assume the structure as drawn. Where two headings read alike, the source gives them in different places. Marks after values point to notes of the source that are not given here.

How the values were obtained:
PA = conditions: cited from earlier work
[1] = test system: Pseudomonas aeruginosa (PA) isolates; assay: Clinical Trial I: MIC for PA isolates; type: cell-based; conditions: for MIC50 / MIC90 / MIC: Pseudomonas aeruginosa
CF patients = conditions: cited from earlier work
[2] = Clinical Trial II: sputum and plasma aztreonam concentrations; type: in vivo; conditions: human, sputum, inhaled, 75 mg, sputum aztreonam concentration, median (range), 10 minutes postdose
[3] = test system: Pseudomonas aeruginosa (PA) isolates; assay: Clinical Trial II: MIC of aztreonam for PA isolates; type: cell-based
[4] = Colistin, N = 62, 80 BID/28 days

Q: What does the source list for `NC[C@H]1O[C@H](O[C@H]2[C@H](O)[C@@H](O[C@H]3O[C@H](CO)[C@@H](O)[C@H](N)[C@H]3O)[C@H](N)C[C@@H]2N)[C@H](N)C[C@@H]1O` [tobramycin]?
A: PA Density Change (Log10) (PA; Tobramycin 600 TID, N = 36): −2.0 Log10; MIC50 and MIC90 of tobramycin for PA isolates, change ([1]; Days −28 to 56): ≤ 4 fold; MIC50 ([1]; isolates of AZLI-BID group, Day −28, read-out: MIC50 of tobramycin for all PA isolates): 1 µg/mL (≈ 2.14 µM); MIC90 ([1]; isolates of AZLI-BID group, Day −28, read-out: MIC90 of tobramycin for all PA isolates): 16 µg/mL (≈ 34.2 µM); MIC50 ([1]; isolates of AZLI-Pooled group, Day −28, read-out: MIC50 of tobramycin for all PA isolates): 1 µg/mL (≈ 2.14 µM); MIC90 ([1]; isolates of AZLI-Pooled group, Day −28, read-out: MIC90 of tobramycin for all PA isolates): 32 µg/mL (≈ 68.4 µM); MIC50 ([1]; isolates of AZLI-TID group, Day −28, read-out: MIC50 of tobramycin for all PA isolates): 2 µg/mL (≈ 4.28 µM); MIC90 ([1]; isolates of AZLI-TID group, Day −28, read-out: MIC90 of tobramycin for all PA isolates): 64 µg/mL (≈ 137 µM); MIC50 ([1]; isolates of Placebo group, Day −28, read-out: MIC50 of tobramycin for all PA isolates): 2 µg/mL (≈ 4.28 µM); MIC90 ([1]; isolates of Placebo group, Day −28, read-out: MIC90 of tobramycin for all PA isolates): 256 µg/mL (≈ 548 µM); FEV1 Change (absolute change in FEV1 % predicted, comparison to control after 28 days of therapy) (CF patients; 600 TID, N = 36): 10%^a

Q: What does the source list for Colistin?
A: PA Density Change (Log10) (PA; [4]): −0.6 Log10; FEV1 Change (relative change in FEV1 % predicted, comparison to control after 28 days of therapy) (CF patients; [4]): 0%^b

Q: With `C[C@H]1[C@H](NC(=O)/C(=N\OC(C)(C)C(=O)O)c2csc(N)n2)C(=O)N1S(=O)(=O)O` [aztreonam] as the molecule, how does the MIC50 ([1]; 0 h, read-out: MIC50 of aztreonam for all PA isolates, isolates of AZLI-BID group, Day 0) read?
A: 2 µg/mL (≈ 4.59 µM)

Q: And the MIC50 ([1]; 0 h, read-out: MIC50 of aztreonam for all PA isolates, isolates of AZLI-Pooled group, Day 0)?
A: 2 µg/mL (≈ 4.59 µM)

Q: And the MIC50 ([1]; 0 h, read-out: MIC50 of aztreonam for all PA isolates, isolates of AZLI-TID group, Day 0)?
A: 2 µg/mL (≈ 4.59 µM)

Q: What about the MIC50 ([1]; 0 h, read-out: MIC50 of aztreonam for all PA isolates, isolates of Placebo group, Day 0) of the same molecule?
A: ≤ 1 µg/mL

Q: What about the MIC90 ([1]; 0 h, read-out: MIC90 of aztreonam for all PA isolates, isolates of AZLI-BID group, Day 0) of the same molecule?
A: 64 µg/mL (≈ 147 µM)

Q: And the MIC90 ([1]; 0 h, read-out: MIC90 of aztreonam for all PA isolates, isolates of AZLI-Pooled group, Day 0)?
A: 32 µg/mL (≈ 73.5 µM)

Q: And the MIC90 ([1]; 0 h, read-out: MIC90 of aztreonam for all PA isolates, isolates of AZLI-TID group, Day 0)?
A: 32 µg/mL (≈ 73.5 µM)

Q: And the MIC90 ([1]; 0 h, read-out: MIC90 of aztreonam for all PA isolates, isolates of Placebo group, Day 0)?
A: 64 µg/mL (≈ 147 µM)

Q: What about the MIC ([1]; 0 h, read-out: Maximum MIC of aztreonam for all PA isolates, isolates of AZLI-BID group, Day 0) of the same molecule?
A: > 2050 µg/mL

Q: What about the MIC ([1]; 0 h, read-out: Maximum MIC of aztreonam for all PA isolates, isolates of AZLI-Pooled group, Day 0) of the same molecule?
A: > 2050 µg/mL

Q: And the MIC ([1]; 0 h, read-out: Maximum MIC of aztreonam for all PA isolates, isolates of AZLI-TID group, Day 0)?
A: 1020 µg/mL

Q: What about the MIC ([1]; 0 h, read-out: Maximum MIC of aztreonam for all PA isolates, isolates of Placebo group, Day 0) of the same molecule?
A: 1020 µg/mL

Q: And the MIC ([1]; 0 h, read-out: Minimum MIC of aztreonam for all PA isolates, isolates of AZLI-BID group, Day 0)?
A: ≤ 1 µg/mL

Q: And the MIC ([1]; 0 h, read-out: Minimum MIC of aztreonam for all PA isolates, isolates of AZLI-Pooled group, Day 0)?
A: ≤ 1 µg/mL

Q: And the MIC ([1]; 0 h, read-out: Minimum MIC of aztreonam for all PA isolates, isolates of AZLI-TID group, Day 0)?
A: ≤ 1 µg/mL

Q: What about the MIC ([1]; 0 h, read-out: Minimum MIC of aztreonam for all PA isolates, isolates of Placebo group, Day 0) of the same molecule?
A: ≤ 1 µg/mL

Q: What about the concentration at 10 min ([2]; Day 0) of the same molecule?
A: 530000 ng/g

Q: What about the concentration at 10 min ([2]; Day 14) of the same molecule?
A: 677000 ng/g

Q: What about the concentration at 10 min ([2]; Day 28) of the same molecule?
A: 451000 ng/g

Q: What about the MIC50 ([3]; read-out: MIC50 of aztreonam for all PA isolates, isolates of AZLI group, baseline) of the same molecule?
A: 4 µg/mL

Q: What about the MIC50 ([3]; read-out: MIC50 of aztreonam for all PA isolates, isolates of Placebo group, baseline) of the same molecule?
A: 2 µg/mL

Q: And the MIC90 ([3]; read-out: MIC90 of aztreonam for all PA isolates, isolates of AZLI group, baseline)?
A: 128 µg/mL

Q: What about the MIC90 ([3]; read-out: MIC90 of aztreonam for all PA isolates, isolates of Placebo group, baseline) of the same molecule?
A: 64 µg/mL

Q: And the MIC ([3]; read-out: Maximum MIC of aztreonam for all PA isolates, isolates of AZLI group, baseline)?
A: > 2050 µg/mL

Q: What about the MIC ([3]; read-out: Maximum MIC of aztreonam for all PA isolates, isolates of Placebo group, baseline) of the same molecule?
A: 256 µg/mL

Q: And the MIC ([3]; read-out: Minimum MIC of aztreonam for all PA isolates, isolates of Placebo group, baseline)?
A: ≤ 1 µg/mL

B1: Pulmozyme: Pulmozyme registration trial comparator (protein, UniProt P24855 23-282, looked up)
Deoxyribonuclease-1: LKIAAFNIQTFGETKMSNATLVSYIVQILSRYDIALVQEVRDSHLTAVGKLLDNLNQDAPDTYHYVVSEPLGRNSYKERYLFVYRPDQVSAVDSYYYDDGCEPCGNDTFNREPAIVRFFSRFTEVREFAIVPLHAAPGDAVAEIDALYDVYLDVQEKWGLEDVMLMGDFNAGCSYVRPSQWSSIRLWTSPTFQWLIPDSADTTATPTHCAYDRIVVAGMLLRGAVVPDSALPFNFQAAYGLSDQLAQAISDHYPVEVMLK
Q: With B1 as the molecule, how does the “FEV1 Change (percent change in FEV1 (L), comparison to control after 24 weeks of therapy)” value (CF patients; 2.5 mg BID/24 weeks) read?
A: 5.8 ± 0.7^c %

Q: What about the “FEV1 Change (percent change in FEV1 (L), comparison to control after 24 weeks of therapy)” value (CF patients; 2.5 mg TID/24 weeks) of the same molecule?
A: 5.6 ± 0.7^c %
